Measured values published in US5393761A, “3-arylindole compounds” (H. Lundbeck A/S, priority 1990, dated 1995).
Counter-ions that a name gives are not always drawn.

Experiments:
[1] = molecular target: T1, serotonin S2 (5-HT2) receptors in rat cortex (Rattus norvegicus, UniProt P14842); test: Inhibition of ^3H-ketanserin binding to serotonin S2 (5-HT2) receptors in rat cortex in vitro; details: 0.5 nM ^3H-ketanserin, rat cortex membranes, 37° C., 30 min
T1 construct: Serotonin S2 (5-HT2) receptors in membranes from rat; from tissue; host or cells: cerebral cortex membranes of male Wistar rats (printed 'conical tissue', a misprint for cortical)
T1 sequence (P14842 whole entry): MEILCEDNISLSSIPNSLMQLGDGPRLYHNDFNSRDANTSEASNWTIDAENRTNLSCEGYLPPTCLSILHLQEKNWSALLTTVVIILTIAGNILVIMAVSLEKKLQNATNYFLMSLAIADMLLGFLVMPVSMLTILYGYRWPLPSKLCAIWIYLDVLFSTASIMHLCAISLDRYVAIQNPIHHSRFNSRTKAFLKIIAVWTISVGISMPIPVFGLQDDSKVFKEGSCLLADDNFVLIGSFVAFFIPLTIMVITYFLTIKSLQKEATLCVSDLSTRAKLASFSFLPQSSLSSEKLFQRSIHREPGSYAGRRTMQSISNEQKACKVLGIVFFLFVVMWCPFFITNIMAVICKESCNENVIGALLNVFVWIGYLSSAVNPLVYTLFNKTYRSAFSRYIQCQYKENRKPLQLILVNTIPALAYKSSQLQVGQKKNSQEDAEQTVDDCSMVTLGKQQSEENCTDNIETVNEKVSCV
Procedure: Method in Hyttel, Pharmacology & Toxicology, 61, 126-129, 1987.
Male Wistar (Mol:Wist) rats (125-250 g) are sacrificed and conical tissue is dissected and weighed. The tissue is homogenized (Ultra Turrax, 10 sec.) in 10 ml of ice-cold 50 mM tris buffer pH 7.7 (at 25° C.). The centrifuge glassware used in this step has been rinsed by sonication for 10 min. in ethanol. The homogenate is centrifuged twice at 20,000 g for 10 min. at 4° C. with rehomogenization of the pellet in 10 ml ice-cold buffer. The final pellet is homogenized in 500 vol (w/v)ice-cold buffer.
Incubation tubes kept on ice in triplicate receive 100 μl Of drug solution in water (or water for total binding) and 2000 μl of tissue suspension (final tissue content corresponds to 4 mg original tissue). […] After incubation for 30 min. the samples are filtered under vacuum (0-50 mBar) through Whatman GF/F filters (25 mm). The tubes are rinsed with 5 ml ice-cold buffer which are then poured on the filters. Thereafter, the filters are washed with 2×5 ml of buffer. The filters are placed in counting vials and 4 ml of appropriate scintillation fluid (e.g. Picofluor ™15) are added. After shaking for 1 h and storage 2 hrs in the dark the content of radioactivity is determined by liquid scintillation counting. Specific binding is obtained by subtracting the nonspecific binding in the presence of 1 μM mianserin. For determination of the inhibition of binding five concentrations of drugs covering 3 decades are used.
The IC50 value is determined as the concentration at which the binding is 50% of the total binding in control samples minus the nonspecific binding in the presence of 1 μM mianserin.

[2] = molecular target: dopamine D-2 receptors in rat corpus striatum (Rattus norvegicus, UniProt P61169); test: Inhibition of ^3H-spiperone (spiroperidol) binding to dopamine D-2 receptors in rat corpus striatum in vitro; details: 0.5 nM ^3H-spiperone, rat striatum membranes, 37° C., 10 min
Sequence of dopamine D-2 receptors in rat corpus striatum (P61169 whole entry): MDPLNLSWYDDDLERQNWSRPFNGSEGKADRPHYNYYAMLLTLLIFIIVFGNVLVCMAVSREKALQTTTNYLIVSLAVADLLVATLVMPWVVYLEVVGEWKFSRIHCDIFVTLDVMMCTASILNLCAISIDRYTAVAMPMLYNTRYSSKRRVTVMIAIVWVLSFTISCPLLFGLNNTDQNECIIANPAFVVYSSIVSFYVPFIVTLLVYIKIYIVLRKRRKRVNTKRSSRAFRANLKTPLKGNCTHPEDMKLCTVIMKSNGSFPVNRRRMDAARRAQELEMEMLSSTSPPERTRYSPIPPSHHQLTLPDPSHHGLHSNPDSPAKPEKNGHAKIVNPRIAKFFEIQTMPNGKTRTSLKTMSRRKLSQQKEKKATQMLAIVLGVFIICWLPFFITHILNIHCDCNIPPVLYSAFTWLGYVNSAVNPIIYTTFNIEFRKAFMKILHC
Procedure: By this method the inhibition by drugs of the binding of ^3 H-spiperone (=^3 H-spiroperidol) (0.5 nM) to dopamine D-2 receptors in membranes from rat corpus striatum is determined in vitro. Method and results in Hyttel & Larsen, J. Neurochem, 44, 1615-1622, 1985).
Male Wistar (Mol:Wistar) rats (125-250 g) are sacrificed and striatal tissue is dissected and weighed. The tissue is homogenized (Ultra Turrax, 10 sec.) in 10 ml of ice-cold 50 mM K-phosphate buffer pH 7.4 (at 25° C.). The homogenate is centrifuged twice at 20,000 g for 10 min. at 4° C. with rehomogenization of the pellet in 10 ml ice-cold buffer. The final pellet is homogenized in 1300 vol (w/v) ice-cold buffer.
Incubation tubes kept on ice in triplicate receive 100 μl of drug solution in water (or water for total binding) and 4000 μl Of tissue suspension (final tissue content corresponds to 3.08 mg original tissue). The binding experimental is initiated by addition of 100 μl of ^3 H-spiperone (final concentration 0.5 nM) and by placing the tubes in a 37° C. water bath. After incubation for 10 min. the samples are filtered under vacuum (0-50 mBar) through Whatman GF/F filters (25 mm). The tubes are rinsed with 5 ml ice-cold buffer which are then poured on the filters. Thereafter, the filters are washed with 2×5 ml of buffer. The filters are placed in counting vials and 4 ml of appropriate scintillation fluid (e.g. Picofluor ™15) are added. After shaking for 1 h and storage 2 hrs in the dark the content of radioactivity is determined by liquid scintillation counting. Specific binding is obtained by subtracting the nonspecific binding in the presence of 10 μM of 6,7-ADTN.
For determination of the inhibition of binding five concentrations of drugs covering 3 decades are used.
The measured cpm are plotted against drug concentration on semilogarithmic paper and the best fitting S-shaped curve is drawn. […] England, specific activity 15-25 Ci/mmol.

SMILES | IC50 [1] | IC50 [2]
CC(=O)N1CCN(CCN2CCC(n3cc(-c4ccc(F)cc4)c4cc(C)ccc43)CC2)C1=O [Compound 21a, 1-[1-[2-(3-Acetylimidazolidin-2-on-1-yl)ethyl]-4-piperidyl]-3-(4-fluorophenyl)-5-methyl-1H-indole, oxalate] | 18 nM | 890 nM
Cc1ccc2c(c1)c(-c1ccc(F)cc1)cn2C1CCN(CCNC(=S)N(C)C)CC1 [Compound 13a, 1-[1-[2-(3,3-Dimethyl-1-thioureido)ethyl]-4-piperidyl]-3-(4-fluorophenyl)-5-methyl-1H-indole] | 3.7 nM | 250 nM
CN1CCN(CCN2CCC(n3cc(-c4ccc(F)cc4)c4cc(Cl)ccc43)CC2)C1=O [Compound 4f, 5-Chloro-3-(4-fluorophenyl)-1-[1-[2-(3-methylimidazolidin-2-on-1-yl)ethyl]-piperidyl]-1H-indole] | 1.4 nM | 550 nM
O=C1NCCN1CCN1CCC(n2cc(-c3ccc(F)cc3)c3cc(F)ccc32)CC1 [Compound 4m, 5-Fluoro-3-(4-fluorophenyl)-1-[1-[2-(imidazolidin-2-on-1-yl)ethyl]-4-piperidyl]-1H-indole] | 3.2 nM | 250 nM
Cc1c(-c2ccccc2)c2cc(Cl)ccc2n1C1CCN(C)CC1 [Compound 9b, 5-Chloro-2-methyl-3-phenyl-1-(1-methyl-4-piperidyl)-1H-indole] | 17 nM | 2900 nM
CN1CCN(CCN2CCC(n3cc(-c4ccc(F)cc4)c4ccc(Cl)cc43)CC2)C1=O [Compound 4a, 6-Chloro-3-(4-fluorophenyl)-1-[1-[2-(3-methylimidazolidin-2-on-1-yl)ethyl]-4-piperidyl)-1H-indole, maleate] | 1.5 nM | 46 nM
CC(C)N1CCN(CCN2CCC(n3cc(-c4ccc(F)cc4)c4ccccc43)CC2)C1=O [Compound 4l, 3-(4-Fluorophenyl)-1-[1-[2-[3-(2-propyl)imidazolidin-2-on-1-yl]ethyl]-4-piperidyl]-1H-indole, hydrochloride, hydrate] | 3.3 nM | 74 nM
Cc1ccc2c(c1)c(-c1ccc(F)cc1)c(C)n2C1CCN(C)CC1 [Compound 9a, 2,5-Dimethyl-3-(4-fluorophenyl)-1-(1-methyl-4-piperidyl)-1H-indole] | 5.3 nM | 2600 nM
O=C1NCCN1CCN1CCC(N2CC(c3ccc(F)cc3)c3cc(F)ccc32)CC1 (stereo not shown) [Compound 4r, 2,3-Dihydro-3-(4-fluorophenyl)-1-[1-[2-(imidazolidin-2-on-1-yl)ethyl]-4-piperidyl]-5-fluoro-1H-indole] | 3.4 nM | 230 nM
Cc1ccc2c(c1)c(-c1ccc(F)cc1)c(Cl)n2C1CCN(CCN2CCN(C(C)C)C2=O)CC1 [Compound 27a, 2-Chloro-3-(4-fluorophenyl)-5-methyl-1-[1-[2-[3-(2-propyl)imidazolidin-2-on-1-yl]ethyl]-4-piperidyl]-1H-indole] | 10 nM | 3200 nM
O=C1NCCN1CCN1CCC(n2nc(-c3ccc(F)cc3)c3cc(C(F)(F)F)ccc32)CC1 [Compound 4u, 3-(4-Fluorophenyl)-1-[1-[2-(imidazolidin-2-on-1-yl)ethyl]-4-piperidyl]-5-trifluoromethyl-1H-indazole] | 220 nM | 42000 nM
O=C1NCCN1CCN1CCC(n2nc(-c3ccc(F)cc3)c3ccc(Cl)cc32)CC1 [Compound 4t, 6-Chloro-3-(4-fluorophenyl)-1-[1-[2-(imidazolidin-2-on-1-yl)ethyl]-4-piperidyl]-1H-indazole] | 38 nM | 1900 nM
CC(C)N1CCN(CCN2CCC(n3cc(-c4ccc(F)cc4)c4cc(Cl)ccc43)CC2)C1=O [Compound 4e] | 5.4 nM | 570 nM
Cc1ccc2c(c1)c(-c1ccc(F)cc1)cn2C1CCN(CCO)CC1 [Compound 16a, 3-(4-Fluorophenyl)-1-[1-(2-hydroxyethyl)-4-piperidyl]-5-methyl-1H-indole, oxalate] | 22 nM | 1500 nM
Cc1ccc2c(c1)c(-c1ccc(F)cc1)c(C)n2C1=CCN(CCN2CCNC2=O)CC1 [Compound 6a, 2,5-Dimethyl-3-(4-fluorophenyl)-1-[1-[2-(imidazolidin-2-on-1-yl)ethyl]-1,2,3,6-tetrahydropyridin-4-yl]-1H-indole] | 2.8 nM | 6300 nM
Cc1ccc2c(c1)c(-c1ccc(F)cc1)cn2N1CCN(C)CC1 [Compound 20a, 3-(4-Fluorophenyl)-5-methyl-1-(1-methylpiperazin-4-yl)-1H-indole] | 13 nM | 3900 nM
Cc1ccc2c(c1)c(-c1ccc(F)cc1)cn2C1CCN(CCN2CCN(C(C)C)C2=O)CC1 [Compound 4h, 3-(4-Fluorophenyl)-5-methyl-1-[1-[2-[3-(2-propyl)imidazolidin-2-on-1-yl]ethyl]-4-piperidyl)-1H-indole, oxalate] | 2.7 nM | 1100 nM
O=C1NCCN1CCN1CCC(n2cc(-c3ccc(F)cc3)c3cc(C(F)(F)F)ccc32)CC1 [Compound 7b, 3-(4-Fluorophenyl)-1-[1-[2-(imidazolidin-2-on-1-yl)ethyl]-4-piperidyl]-5-trifluoromethyl-1H-indole] | 6.2 nM | > 1000 nM
O=C1NCCN1CCN1CCC(n2cc(-c3ccccc3)c3cc(Cl)ccc32)CC1 [Compound 4p, 5-Chloro-3-phenyl-1-[1-[2-(imidazolidin-2-on-1-yl)ethyl]-4-piperidyl]-1H-indole] | 29 nM | 2800 nM
Cc1ccc2c(c1)c(-c1ccc(F)cc1)cn2C1=CCN(CCN2CCNC2=O)CC1 [Compound 6c, 3-(4-Fluorophenyl)-1-[1-[2-(imidazolidin-2-on-1-yl)ethyl]-1,2,3,6-tetrahydropyridin-4-yl]-5-methyl-1H-indole] | 1.4 nM | 320 nM
O=C1NCCN1CCN1CCC(n2cc(-c3ccc(F)cc3)c3ccccc32)CC1 [Compound 4k, 3-(4-Fluorophenyl)-1-[1-[2-(imidazolidin-2-on-1-yl)ethyl]-4-piperidyl]-1H-indole] | 3.1 nM | 120 nM
Cc1ccc2c(c1)c(-c1ccc(F)cc1)cn2C1CCN(C)CC1 [Compound 11a, 3-(4-Fluorophenyl)-5-methyl-1-(1-methyl-4-piperidyl)-1H-indole, fumarate] | 4.5 nM | 540 nM
O=C1NCCN1CCN1CCC(n2cc(-c3ccc(F)cc3)c3ccc(Cl)cc32)CC1 [Compound 4b, 6-Chloro-3-(4-fluorophenyl)-1-[1-[2-(imidazolidin-2-on-1-yl)ethyl]-4-piperidyl]-1H-indole] | 1.9 nM | 37 nM
O=C1NCCN1CCN1CCC(n2cc(-c3ccc(F)cc3)c3cc(Cl)ccc32)CC1 [Compound 4d, 5-Chloro-3-(4-fluorophenyl)-1-[1-[2-(imidazolidin-2-on-1-yl)ethyl]-4-piperidyl]-1H-indole] | 5.7 nM | 410 nM
CC(C)N1CCN(CCN2CCC(n3cc(-c4ccc(F)cc4)c4ccc(Cl)cc43)CC2)C1=O [Compound 4c, 6-Chloro-3-(4-fluorophenyl)-1-[1-[2-[3-(2-propyl)imidazolidin-2-on-1-yl]ethyl]-4-piperidyl]-1H-indole, hydrochloride, hydrate] | 3.7 nM | 42 nM
Cc1ccc2c(c1)c(-c1ccc(F)cc1)c(C)n2C1=CCN(C)CC1 [Compound 6b, 2,5-Dimethyl-3-(4-fluorophenyl)-1-(1-methyl-1,2,3,6-tetrahydropyridin-4-yl)-1H-indole] | 3.8 nM | 710 nM
